Data reported in patent US20250296971A1, “GASTRIC INHIBITORY PEPTIDE RECEPTOR LIGANDS” (priority 2021, published 2025).
*1 amine or outer side, *2 acyl side, *3 side chain or, on linkers, in order; H or OH if unused. Where a SMILES comes first, the peptide text is derived from it. Bridges are numbered along the chain shown (N, C = ends). Side-chain parts run from the residue outwards. [ ]: non-standard residue; d: D form. The star is where a group is joined. X12 = O=C(O)CN1CCN(CC(=O)O)CCN(CC(=O)N[C@H](CCC(=O)NC[C@H](O)[C@@H](O)[C@H](O)[C@H](O)CO)C(=O)*)CCN(CC(=O)O)CC1; X2 = O=C(O)CN1CCN(CC(=O)O)CCN(CC(=O)N[C@@H](CCC(=O)NC[C@H](O)[C@@H](O)[C@H](O)[C@H](O)CO)C(=O)*)CCN(CC(=O)O)CC1; NH(1-deoxy-D-glucityl) = OC[C@@H](O)[C@@H](O)[C@H](O)[C@@H](O)CN*; Pro(trans-4-NH2) = O=C([C@@H]1C[C@@H](N[*:3])CN1[*:1])[*:2]; DOTA = O=C(O)CN1CCN(CC(=O)O)CCN(CC(=O)*)CCN(CC(=O)O)CC1; Trp(5-Cl) = N[C@@H](Cc1c[nH]c2ccc(Cl)cc12)C(=O)O; Pyridine(2,6-diCH2) = c1cc(C[*:1])nc(C[*:2])c1; Pro(4R-NH2) = N[C@H]1CN[C@H](C(=O)O)C1; Glutaryl = O=C(CCCC(=O)[*:2])[*:1]; Hyp = O=C(O)[C@@H]1C[C@@H](O)CN1; X1 = O=C(CN1CCC(N[*:1])CC1)[*:2]; Api = NC1(C(=O)O)CCNCC1; Thp = NC1(C(=O)O)CCOCC1

Columns and labels:
[1] = target: T1, GIPR (CHO-K1-hGIPR cells) (Homo sapiens, UniProt P48546); assay: FACS binding assay; conditions: competition with 20 nM GIP-057, 4° C., 1 hour, read-out: pIC50 Category (converted)
T1 construct: host or cells: CHO-K1
T1 sequence (P48546 22-466): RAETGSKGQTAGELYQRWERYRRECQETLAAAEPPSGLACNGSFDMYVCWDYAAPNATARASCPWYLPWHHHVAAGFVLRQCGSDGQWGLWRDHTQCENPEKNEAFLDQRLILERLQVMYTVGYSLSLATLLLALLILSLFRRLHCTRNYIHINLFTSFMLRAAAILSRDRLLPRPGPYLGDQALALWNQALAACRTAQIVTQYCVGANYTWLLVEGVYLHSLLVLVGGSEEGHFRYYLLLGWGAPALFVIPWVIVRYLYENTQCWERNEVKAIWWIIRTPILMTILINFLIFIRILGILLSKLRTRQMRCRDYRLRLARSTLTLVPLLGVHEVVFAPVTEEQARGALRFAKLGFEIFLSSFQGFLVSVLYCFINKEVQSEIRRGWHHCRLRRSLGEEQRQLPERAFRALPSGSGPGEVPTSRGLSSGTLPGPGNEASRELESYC
Procedure, shortened: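 Read-out: flow cytometric median fluorescence intensity, APC/Cy5 channel, plotted vs peptide conc.; 4PL fit → EC50/pEC50 or IC50/pIC50. Cells: CHO-K1-hGIPR, Accutase-detached, 500.000/mL in PBS + 1% FCS. Detection: APC-streptavidin 1 μg/mL, 30 min, on ice.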

[2] = target: T2, human GIP receptor (bioGIPR) (Homo sapiens, UniProt P48546); assay: Surface plasmon resonance (SPR) based binding assay; conditions: Single Cycle Kinetic mode, 25° C.; for t1/2 Category: SPR dissociation half-life; for Kd: SPR, 1:1 Langmuir binding model, read-out: pKD Category (converted)
T2 construct: Biotinylate extracellular of the human GIP receptor (bioGIPR, Proteros biostructures GmbH, lot #02/2b); purchased Proteros biostructures GmbH lot #02/2b
T2 sequence (P48546 22-138 limits assumed): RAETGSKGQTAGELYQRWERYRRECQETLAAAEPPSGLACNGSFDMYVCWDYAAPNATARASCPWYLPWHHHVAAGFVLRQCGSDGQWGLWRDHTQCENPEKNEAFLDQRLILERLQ
Method: Surface plasmon resonance (SPR) studies were performed using a Biacore™ T200 SPR system. Briefly, polarized light is directed towards a gold-labeled sensor surface, and minimum intensity reflected light is detected. The angle of reflected light changes as molecules bind and dissociate.
Biotinylate extracellular of the human GIP receptor (bioGIPR, Proteros biostructures GmbH, lot #02/2b) was captured on a biotin capture chip (Biotin CAPture Kit, Series S, GE Healthcare, Cat #28-9202-34). bioGIPR was diluted in Running Buffer (HBST from Xantec Analytics; […], 0.05% Tween20, 0.1% DMSO) to a final concentration 100 nM and than flushed over the Fc-capture chip to immobilized ˜3500 RUs.
Stock solutions of test compounds were prepared by dissolving each compound in DMSO. DMSO stock solution were diluted 1:1000 in Running Buffer without DMSO. Further sequential dilutions were made with Running Buffer containing 0.1% DMSO. SPR binding analyses were performed in Single Cycle Kinetic (SCK) mode at 25° C. Flow cell without immobilized bioGIPR served as reference flowcell. After each SCK run, bioGIRP and the Biotin Capture Reagent was removed with Regeneration Solution (6 M Guanidium, 0.75 M NaOH).
In between every three SCK measurements, a blank run with Running Buffer instead of test compound was included to correct for baseline drifts (double blanking method).
For each test compound, SPR raw data in the form of resonance units (RU) were plotted as sensorgrams using the Biacore™ T200 control software. The signal from the blank sensorgram was subtracted from that of the test compound sensorgram (blank corrected). The blank corrected sensorgram was corrected for baseline drift by subtracting the sensorgram of a SCK run without the test compound (running buffer only). The association rate (kon), dissociation rate (koff), dissociation constant (KD), and t1/2 were calculated from blank corrected SPR data using the 1:1 Langmuir binding model from the Biacore™ T200 evaluation software. Raw data and fit results were imported as text files in IDBS. The pKD value (negative decadic logarithm of dissociation constant) was calculated in the IDBS excel template.

IC50 [1] [nM]	t1/2 Category [2]	Kd [2] [nM]	SMILES
< 10	A (t1/2 values>15 min)	< 1	CC[C@H](C)[C@@H]1NC(=O)[C@H](CC(C)C)NC(=O)C2(CCOCC2)NC(=O)[C@@H](NC(=O)[C@@H](CC(C)C)NC(=O)[C@H](CCC(=O)O)NC(=O)[C@@H]2C[C@@H](O)CN2C(=O)[C@H](Cc2c[nH]c3ccc(Cl)cc23)NC(=O)[C@H](Cc2c[nH]c3ccccc23)NC(=O)[C@H](CC(=O)O)NC(=O)CCCC(=O)NC[C@H](O)[C@@H](O)[C@H](O)[C@H](O)CO)CSCc2cccc(n2)CSC[C@@H](C(=O)NC2CCN(CC(=O)N[C@H](CCC(=O)NC[C@H](O)[C@@H](O)[C@H](O)[C@H](O)CO)C(=O)N[C@@H](CCCCNC(=O)CN3CCN(CC(=O)O)CCN(CC(=O)O)CCN(CC(=O)O)CC3)C(N)=O)CC2)NC1=O [GIP-004, AGLU-Glutar-Asp-Trp-5Clw-Hyp-Glu-leu-[Cys(2Lut)-Thp-Leu-Ile-Cys]-APAc-glu(AGLU)-Lys(DOTA)-NH2] ({NH(1-deoxy-D-glucityl)-Glutaryl}-DW[Trp(5-Cl)][Hyp]E[dL]C[Thp]LIC[X1][dE](NH(1-deoxy-D-glucityl))K(DOTA)-NH2; linker 7-11 via Pyridine(2,6-diCH2))
< 10	A (t1/2 values>15 min)	< 1	CC[C@H](C)[C@@H]1NC(=O)[C@H](CC(C)C)NC(=O)C2(CCN(C(=O)CN3CCN(CC(=O)O)CCN(CC(=O)O)CCN(CC(=O)O)CC3)CC2)NC(=O)[C@@H](NC(=O)[C@@H](CC(C)C)NC(=O)[C@H](CCC(=O)O)NC(=O)[C@@H]2C[C@@H](NC(=O)CCCC(=O)NC[C@H](O)[C@@H](O)[C@H](O)[C@H](O)CO)CN2C(=O)[C@H](Cc2c[nH]c3ccc(Cl)cc23)NC(=O)[C@H](Cc2c[nH]c3ccccc23)NC(=O)[C@H](CC(=O)O)NC(=O)CN2CCC(NC(=O)CCCC(=O)NC[C@H](O)[C@@H](O)[C@H](O)[C@H](O)CO)CC2)CSCc2cccc(n2)CSC[C@@H](C(=O)NC2CCN(CC(=O)N[C@H](CCC(=O)NC[C@H](O)[C@@H](O)[C@H](O)[C@H](O)CO)C(N)=O)CC2)NC1=O [GIP-006, AGLU-Glutar-APAc-Asp-Trp-5Clw-Tap(AGLU-Glutar)-Glu-leu-[Cys(2Lut)-Apc(DOTA)-Leu-Ile-Cys]-APAc-glu(AGLU)-NH2] ({NH(1-deoxy-D-glucityl)-Glutaryl}-[X1]DW[Trp(5-Cl)][Pro(trans-4-NH2)]([Glutaryl-NH(1-deoxy-D-glucityl)])E[dL]C[Api](DOTA)LIC[X1][dE](NH(1-deoxy-D-glucityl))-NH2; linker 8-12 via Pyridine(2,6-diCH2))
10 to 79.4	A (t1/2 values>15 min)	< 1	CC[C@H](C)[C@@H]1NC(=O)[C@H](CC(C)C)NC(=O)C2(CCN(C(=O)[C@H](CCC(=O)NC[C@H](O)[C@@H](O)[C@H](O)[C@H](O)CO)NC(=O)CN3CCN(CC(=O)O)CCN(CC(=O)O)CCN(CC(=O)O)CC3)CC2)NC(=O)[C@@H](NC(=O)[C@@H](CC(C)C)NC(=O)[C@H](CCC(=O)O)NC(=O)[C@@H]2C[C@@H](NC(=O)CCCC(=O)NC[C@H](O)[C@@H](O)[C@H](O)[C@H](O)CO)CN2C(=O)[C@H](Cc2c[nH]c3ccc(Cl)cc23)NC(=O)[C@H](Cc2c[nH]c3ccccc23)NC(=O)[C@H](CC(=O)O)NC(=O)CN2CCC(NC(=O)CCCC(=O)NC[C@H](O)[C@@H](O)[C@H](O)[C@H](O)CO)CC2)CSCc2cccc(n2)CSC[C@@H](C(=O)NC2CCN(CC(=O)N[C@H](CCC(=O)NC[C@H](O)[C@@H](O)[C@H](O)[C@H](O)CO)C(N)=O)CC2)NC1=O [GIP-007, AGLU-Glutar-APAc-Asp-Trp-5Clw-Tap(AGLU-Glutar)-Glu-leu-[Cys(2Lut)-Apc(DOTA-glu(AGLU))-Leu-Ile-Cys]-APAc-glu(AGLU)-NH2] ({NH(1-deoxy-D-glucityl)-Glutaryl}-[X1]DW[Trp(5-Cl)][Pro(trans-4-NH2)]([Glutaryl-NH(1-deoxy-D-glucityl)])E[dL]C[Api](X2)LIC[X1][dE](NH(1-deoxy-D-glucityl))-NH2; linker 8-12 via Pyridine(2,6-diCH2))

SMILES	IC50 [1] [nM]	t1/2 Category [2]	Kd [2] [nM]
CC[C@H](C)[C@@H]1NC(=O)[C@H](CC(C)C)NC(=O)C2(CCN(C(=O)[C@@H](CCC(=O)NC[C@H](O)[C@@H](O)[C@H](O)[C@H](O)CO)NC(=O)CN3CCN(CC(=O)O)CCN(CC(=O)O)CCN(CC(=O)O)CC3)CC2)NC(=O)[C@@H](NC(=O)[C@@H](CC(C)C)NC(=O)[C@H](CCC(=O)O)NC(=O)[C@@H]2C[C@@H](N)CN2C(=O)[C@H](Cc2c[nH]c3ccc(Cl)cc23)NC(=O)[C@H](Cc2c[nH]c3ccccc23)NC(=O)[C@H](CC(=O)O)NC(=O)CN2CCC(NC(=O)CCCC(=O)NC[C@H](O)[C@@H](O)[C@H](O)[C@H](O)CO)CC2)CSCc2cccc(n2)CSC[C@@H](C(=O)NC2CCN(CC(=O)N[C@H](CCC(=O)NC[C@H](O)[C@@H](O)[C@H](O)[C@H](O)CO)C(N)=O)CC2)NC1=O [GIP-008, AGLU-Glutar-APAc-Asp-Trp-5Clw-Tap-Glu-leu-[Cys(2Lut)-Apc(DOTA-glu(AGLU))-Leu-Ile-Cys]-APAc-glu(AGLU)-NH2] ({NH(1-deoxy-D-glucityl)-Glutaryl}-[X1]DW[Trp(5-Cl)][Pro(4R-NH2)]E[dL]C[Api](X12)LIC[X1][dE](NH(1-deoxy-D-glucityl))-NH2; linker 8-12 via Pyridine(2,6-diCH2))	< 10	A (t1/2 values>15 min)	< 1
